Test results published in US8846951B2 (AbbVie Inc., priority 2009, dated 2014).
Entries after “also recorded” stand apart in the source; their conditions may differ.

Key:
[1] = tested on: PCP-induced hyperlocomotion; assay: Psychostimulant (PCP)-induced hyperlocomotion in rat; assay type: in vivo; details: male CD rats; i.p. 1, 3, 10 mg/kg 30 min before PCP 2 mg/kg sc; significant at 1 mg/kg and 10 mg/kg
Protocol: (vii) Assessment of Effects on Psychostimulant-Induced Hyperlocomotion in Rat
In humans, phencyclidine (PCP) is known to produce a syndrome of behavioral effects which have many characteristics in common with schizophrenia. Therefore, antagonism of PCP effects might be evidence for antipsychotic efficacy of a compound.
Male CD rats with a body weight of 316-394 g from Charles River (Portage, Mich.) were used in this study. The rats were habituated to the test room for 60 minutes. The rats were then placed into the locomotor activity chambers (AccuScan Instruments) for 30 minutes and then were dosed i.p. with Example 115 at 0, 1, 3 and 10 mg/kg. The rats were dosed sc 30 minutes later with PCP at 0 or 2 mg/kg. The activity was measured for 150 minutes in total and 90 minutes post PCP.

[2] = tested on: MK-801-induced deficits in inhibitory avoidance; assay: 24-hour inhibitory avoidance in mouse (MK-801-induced deficit); assay type: in vivo; details: CD1 mice; i.p.; high dose of 10 mg/kg; compared to Veh-MK-801 (0.1 mg/kg)
Source text: (viii) Inhibitory Avoidance in Mouse
Specifically in the hippocampus CA1 area, N-methyl-D-aspartic acid (NMDA) receptors are known to regulate synaptic plasticity, long term-potentiation (LTP), and learning and memory processes, including short- and long-term memories. […] The inhibitory avoidance task involves the uses of a two-compartment step through apparatus (Ugo Basile, Collegeville, Pa.) that measures the animal's ability to remember a brief noxious stimulus (foot shock), and is considered a measure of trial learning, and memory. (Bitner, R. S., et al. J. Neurosci. 2007, 27(39), 10578-10587). The purpose of this experiment was to test the ability of a 5HTc agonist to attenuate MK-801-induced deficits in the 24-hour inhibitory avoidance test. Effects against MK-801-induced cognitive impairment may indicate a potential efficacy in treating cognitive deficits of schizophrenia.
Following a 2 hour habituation period, CD1 mice first received i.p. treatment with the test compound at 0, 1, 3, 10 mg/kg. 20 minutes later mice then received either MK-801 at 0.1 mg/kg (dissolved in 0.3% tartaric acid) or vehicle (Veh, water). […] The latency to enter the adjoining dark chamber was recorded, and an inescapable foot shock (0.3 mA, 1 second duration) was presented to the mouse. […] The latency to enter the dark chamber was recorded and was the dependent variable measured for assessing memory retention.

SHR pups = assay: 5-trial inhibitory avoidance/impulsivity model in pups of spontaneously hypertensive rat; assay type: in vivo; details: sc 1, 3 and 10 mg/kg, acute, compared to vehicle
Source text: (ix) 5-Trial Inhibitory Avoidance/Impulsivity Model in the Pups of Spontaneously Hypertensive Rat
However, the adult rats have spontaneous hypertension which may confound behavioral assessment. The juvenile SHRs were used in the current study since these pups show similar behavioral deficits while having not developed hypertension. The aim was to investigate the efficacy of 5-HT2c agonists in SHR pups in an inhibitory avoidance model, as indication of enhancement of inhibitory control/or anti-impulsivity.
SHR pups at postnatal day 21-28 were sc dosed with either vehicle or Example 115 (1, 3, and 10 mg/kg; dissolved in tartaric acid/PH4-6) 30 minutes prior to the test. Upon testing initiation, pups were placed into the light side of a computer controlling 2-chambered compartment. The latency to enter the adjoining dark chamber was recorded, and an inescapable footshock (0.1 mA, 1 second duration) was presented to the pup. The pup was removed, placed back into the home cage for approximately 1 minute, and the process repeated for a total of 5 trials. The dependent variable used for data analysis was the total transfer latency of trial 2 to trial 5.

[3] = tested on: conditioned avoidance response (CAR) behavior; assay: Conditioned avoidance responding in rats; assay type: in vivo, rat; details: male Wistar rats
Protocol: The fact that antipsychotics have the unique ability to selectively suppress CAR behavior, made the CAR test a useful tool for the screening of new, potentially antipsychotic compounds. […] Animals Male Wistar rats (9-11 weeks old, Charles River, Germany) were pair-housed and allowed ad-libitum access to food and water. A 12-hour light/dark cycle was imposed with lights-on period between 0530 and 1730 hours. All testing occurred between 700 and 1300 hours. All procedures were approved by Abbott Institutional Animal Care and Use Committee (USA) or Animal Welfare Officer (Germany) and were conducted in accordance with the National Institutes of Health Guide for Care and Use of Laboratory Animals guidelines and applicable national laws in the facilities accredited by the Association for the Assessment and Accreditation of Laboratory Animal Care. Methods Wistar rats are exposed to a conditioned stimulus CS (a 2.9-kHz tone of 10 second duration), which is a signal for the animal that it must move into the other chamber in order to avoid an immediately ensuing footshock US (0.5 mA, 10 second, tone continues during shock presentation). Once the shock has begun, the animal can still escape it by moving to the other chamber. Each session is limited to a maximum of 40 trials (intertrial interval 10-90 seconds). The animals generally learn quickly to change chambers upon the conditioned stimulus and thus avoid further shocks. Scored are: • Avoided responses=crossings into other compartment within 10 seconds of tone presentation; • Escaped responses=crossings between 10-20 seconds of tone presentation; • Failures=crossings after cessation of tone-shock presentation or no crossing. […] At the test sessions (=CS-shock pairings), animals are pre-treated with a test drug or vehicle 30 minutes before commencement of the session.

## CN1C[C@@H]2CNC(=O)c3cc(-c4ccc(F)cc4)ccc3[C@H]2C1 [Example 115, (3aS,10bS)-8-(4-Fluorophenyl)-2-methyl-1,2,3,3a,4,5-hexahydrobenzo[e]pyrrolo[3,4-c]azepin-6(10bH)-one]
[1]
  PCP-induced hyperlocomotion (distance traveled): significantly attenuate the PCP-induced hyperlocomotion; also recorded: attenuating the affect of phencyclidine (PCP)
[2]
  transfer latency, 24-hour inhibitory avoidance: significantly increased transfer latencies; also recorded: dose-dependent improvement in mouse 24-hour inhibitory avoidance scores
SHR pups
  total transfer latency of trial 2 to trial 5: dose-dependent increase in transfer latencies; also recorded: dose-dependent improvement in 5-trial inhibitory avoidance scores
[3]; acute, 30 minutes before session
  conditioned avoidance behavior (avoided responses): significantly suppressed conditioned avoidance behavior
[3]; indicator of sedation or extrapyramidal side effects
  number of failures: without affecting the number of failures
